Common to all, as to format: cell-based
Assay [1] has as its system Bacteria Pool. The assay can be described thus: Challenge test of hand lotion with bacteria pool. The arrangement: key to Bacterial Growth Rating 1 day / Bacterial Growth Rating 1 wk / Bacterial Growth Rating 3 wk: 1: 0 (No Growth); 2: 1-4; 3: 5-10; 4: 11-25; 26-50; 6: 51-100; 7: 101-200; 8: 201-300; 9: (TNTC) too numerous to count; 10: (TNTC) solid m. To be noted: 1000 ppm of each compound; for Bacterial Growth Rating 1 wk: streaked 1 week after inoculation; for Bacterial Growth Rating 2 wk: streaked 2 weeks after inoculation; for Bacterial Growth Rating 3 wk: streaked 3 weeks after inoculation; for Bacterial Growth Rating 1 day: streaked 1 day after inoculation; for Bacterial Growth Rating 2 day: streaked 2 days after inoculation. How it is done:
(§1) The samples were tested by the challenge test described below. In this challenge test, samples were stored at room temperatures, inoculated at zero days and streaked at 0 days, 1 day, 2 days, 1 week, 2 weeks and 3 weeks. […] Twenty-five grams of sample are weighed out in one-ounce glass jars. […] Biocide was dissolved into solution before use and different concentrations are prepared by adding the appropriate amount of the biocide solution to the samples. […] A negative control is included using a sample without any biocide. 4. The bacteria pool inoculum is made fresh on the day of inoculation by using equal volumes of the 24 hour cultures of the ATCC bacteria grown individually in nutrient broth at 30° C. […] 5. Before inoculation, samples are streaked on TSA (tryptic soy agar) plates with sterile cotton swabs. The plates are incubated at 30° C. for 48 hours and then read using a bacterial colony counter and rated for microbial growth according to the Growth Rating Chart. […] Samples are inoculated with 0.05 mL (for 25 g samples) of the […]. […] Immediately after inoculation, samples are streaked with sterile cotton swabs on TSA plates. The plates are then incubated at 30° C. for 48 hours. The samples are incubated at room temperature. 8. Samples are streaked again at 1 day, 2 days, 1 week, 2 weeks and 3 weeks. […] All plates are incubated 48 hours at 30° C. then read and rated according to the Growth Rating Chart. […] Samples are kept at room temperature.

For assay [2], the system named is Saccharomyces cerevisiae #4105. The assay can be described thus: Challenge test of hand lotion with A. niger and S. cerevisiae (S. cerevisiae rating). To be noted: 1000 ppm of each compound, S. cerevisiae (second figure of cell); for Bacterial Growth Rating 1 wk: 1 week; for Bacterial Growth Rating 2 wk: 2 weeks; for Bacterial Growth Rating 3 wk: 3 weeks; for Bacterial Growth Rating 2 day: 2 days. How it is done: (§2) The samples were tested by the challenge test described below. In this challenge test, samples were stored at room temperatures, inoculated at zero days and streaked at 0 days, 1 day, 2 days, 1 week, 2 weeks and 3 weeks. […] Twenty-five grams of sample are weighed out in one-ounce glass jars. […] Biocide is dissolved into solution before use and different concentrations are prepared by adding the appropriate amount of the biocide solution to the samples. […] A negative control is included using a sample without any biocide. […] Before inoculation, samples are streaked on MYA (malt yeast agar) plates with sterile cotton swabs. The plates are incubated at 30° C. for 48 hours and then read using a bacterial colony counter and rated for microbial growth according to the Growth Rating Chart. […] 5. The inoculum is prepared by adding 9.9 mL sterile 0.85% saline solution to a pure culture slant grown on MYA. A cotton-tipped swab is used to gently rub the surface of the slant to free the cells. […] The yeast and fungus used are: [table] […] Samples are inoculated with 0.05 mL (for 25 g samples) of the An suspension and 0.05 mL of the Sc suspension. 7. Immediately after inoculation, samples are streaked with sterile cotton swabs on MYA plates. The plates are then incubated at 30° C. for 48 hours. The samples are incubated at room temperature. 8. Samples are streaked again at 1 day, 2 days, 1 week, 2 weeks and 3 weeks. 9. All plates are incubated 48 hours at 30° C. then read and rated according to the Growth Rating Chart. Samples are kept at room temperature.

Assay [3] has as its system Bacteria Pool. The assay can be described thus: Challenge test of shampoo with bacteria pool. Also on record: key: 1: 0 (No Growth); 2: 1-4; 3: 5-10; 4: 11-25; 26-50; 6: 51-100; 7: 101-200; 8: 201-300; 9: (TNTC) too numerous to count; 10: (TNTC) solid m. To be noted: 1000 ppm of each compound; for Bacterial Growth Rating 1 wk: streaked 1 week after inoculation; for Bacterial Growth Rating 2 wk: streaked 2 weeks after inoculation; for Bacterial Growth Rating 3 wk: streaked 3 weeks after inoculation; for Bacterial Growth Rating 1 day: streaked 1 day after inoculation; for Bacterial Growth Rating 2 day: streaked 2 days after inoculation. How it is done: as §1

The test system of assay [4] is Aspergillus niger ATCC #16404. The assay can be described thus: Challenge test of hand lotion with A. niger and S. cerevisiae (A. niger rating). To be noted: 1000 ppm of each compound, A. niger (first figure of cell); for Bacterial Growth Rating 1 wk: 1 week; for Bacterial Growth Rating 2 wk: 2 weeks; for Bacterial Growth Rating 3 wk: 3 weeks; for Bacterial Growth Rating 2 day: 2 days. The protocol: as §2

As to `CCc1ccc(O)c(OC)c1` [ethylguaiacol, 4-ethyl-2-methoxyphenol], in the assay with Bacteria Pool [1], the “Bacterial Growth Rating 1 wk” value is on record as 5 (26-50), the “Bacterial Growth Rating 2 wk” value was 4 (11-25), the “Bacterial Growth Rating 3 wk” value is reported as 1 (0 (No Growth)) and the “Bacterial Growth Rating 1 day” value is on record as 9. Moreover, the “Bacterial Growth Rating 2 day” value in the assay on Bacteria Pool [1] is 6 (51-100). In assay [2], the “Bacterial Growth Rating 1 wk” value is on record as 4 (11-25), the “Bacterial Growth Rating 2 wk” value is 2/2 (1-4), the “Bacterial Growth Rating 3 wk” value was 3/3 (5-10) and the “Bacterial Growth Rating 1 day” value was 4/4 (11-25). Further, the “Bacterial Growth Rating 2 day” value in assay [2] is 4 (11-25). Besides, in the assay with Bacteria Pool [3], the “Bacterial Growth Rating 1 wk” value came out at 9, the “Bacterial Growth Rating 2 wk” value was 9, the “Bacterial Growth Rating 3 wk” value turned out to be 9 and the “Bacterial Growth Rating 1 day” value is 9. Also, the “Bacterial Growth Rating 2 day” value in the assay on Bacteria Pool [3] came to 9. Further, in assay [4], the “Bacterial Growth Rating 1 wk” value is given as 3 (5-10), the “Bacterial Growth Rating 2 wk” value is listed as 2/2 (1-4), the “Bacterial Growth Rating 3 wk” value is 3/3 (5-10) and the “Bacterial Growth Rating 1 day” value is recorded as 4/4 (11-25). Further, the “Bacterial Growth Rating 2 day” value in assay [4] is listed as 3 (5-10).

`COc1cc(C=CC(=O)O)ccc1O` [ferulic acid, 4-hydroxy-3-methoxycinnamic acid]: in the assay on Bacteria Pool [1], the “Bacterial Growth Rating 1 wk” value is reported as 9, the “Bacterial Growth Rating 2 wk” value is on record as 6 (51-100), the “Bacterial Growth Rating 3 wk” value is on record as 9 and the “Bacterial Growth Rating 1 day” value is given as 7 (101-200). In addition, the “Bacterial Growth Rating 2 day” value in the assay with Bacteria Pool [1] was 6 (51-100). Besides, in assay [2], the “Bacterial Growth Rating 1 wk” value is 3/3 (5-10), the “Bacterial Growth Rating 2 wk” value was 3 (5-10), the “Bacterial Growth Rating 3 wk” value was 4 (11-25) and the “Bacterial Growth Rating 1 day” value is reported as 6 (51-100). Moreover, the “Bacterial Growth Rating 2 day” value in assay [2] is recorded as 6 (51-100). In the assay on Bacteria Pool [3], the “Bacterial Growth Rating 1 wk” value is reported as 9, the “Bacterial Growth Rating 2 wk” value came out at 9, the “Bacterial Growth Rating 3 wk” value turned out to be 9 and the “Bacterial Growth Rating 1 day” value came to 9. The “Bacterial Growth Rating 2 day” value with Bacteria Pool [3] worked out at 9. Moreover, in assay [4], the “Bacterial Growth Rating 1 wk” value is reported as 3/3 (5-10), the “Bacterial Growth Rating 2 wk” value is listed as 4 (11-25), the “Bacterial Growth Rating 3 wk” value was 3 (5-10) and the “Bacterial Growth Rating 1 day” value was 4 (11-25). Also, the “Bacterial Growth Rating 2 day” value in assay [4] was 4 (11-25).

`C=Cc1ccc(O)c(OC)c1` [vinylguaiacol, 4-hydroxy-3-methoxystyrene]: in the assay on Bacteria Pool [1], the “Bacterial Growth Rating 1 wk” value was 4 (11-25), the “Bacterial Growth Rating 2 wk” value is listed as 3 (5-10), the “Bacterial Growth Rating 3 wk” value was 1 (0 (No Growth)) and the “Bacterial Growth Rating 1 day” value is on record as 4 (11-25). Moreover, the “Bacterial Growth Rating 2 day” value in the assay with Bacteria Pool [1] is on record as 3 (5-10). In addition, in assay [2], the “Bacterial Growth Rating 1 wk” value is given as 2 (1-4), the “Bacterial Growth Rating 2 wk” value is 1 (0 (No Growth)), the “Bacterial Growth Rating 3 wk” value is listed as 1 (0 (No Growth)) and the “Bacterial Growth Rating 1 day” value is given as 2 (1-4). Moreover, in assay [2], the “Bacterial Growth Rating 2 day” value is 3 (5-10). Besides, in the assay on Bacteria Pool [3], the “Bacterial Growth Rating 1 wk” value was 8 (201-300), the “Bacterial Growth Rating 2 wk” value was determined as 9, the “Bacterial Growth Rating 3 wk” value was found to be 9 and the “Bacterial Growth Rating 1 day” value turned out to be 9. Also, the “Bacterial Growth Rating 2 day” value in the assay with Bacteria Pool [3] was found to be 9. Further, in assay [4], the “Bacterial Growth Rating 1 wk” value was 1 (0 (No Growth)), the “Bacterial Growth Rating 2 wk” value was 1 (0 (No Growth)), the “Bacterial Growth Rating 3 wk” value was 1 (0 (No Growth)) and the “Bacterial Growth Rating 1 day” value was 3 (5-10). The “Bacterial Growth Rating 2 day” value in assay [4] was 1 (0 (No Growth)).

The values are drawn from patent publication US20030176508A1, “Ferulic acid ethyl-guaiacol or vinyl-guaiacol as preservative combination in cosmetic compositions” (priority 2000, published 2003).
